Test [1] has as its system Candida albicans. Put plainly: antifungal activity against resistant Candida strain – CaCi-8, fluconazole, Alamar Blue, dry powder, dose response (AID 488807). The class given is functional, organism-based.
The nature of test [2]: rise of 2N DNA cells, HeLa – IC50, dose response (AID 1117349). The class given is functional, cell-based.
Test [3] can be described thus: rise of 4N DNA cells, HeLa – IC50, dose response (AID 1117351). Format: functional, cell-based.
The subject of test [4] is A-375. Kind of test: MITF: Counter assay: A375 proliferation Measured in Cell-Based System Using Plate Reader - 2084-03_Inhibitor_Dose_DryPowder_Activity. [Related pubchem assays (depositor defined):AID488944]. Format: functional. The note with it: Homo sapiens.
Test [5] can be described thus: reduced cellular PGC1a acetyl-lysine signal – cell-based, cherry-picked samples, dose response (AID 720514).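 Further: potency may reflect raised or lowered acetylation signal.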 The class given is functional.
The test system of test [6] is A-375. Put plainly: proliferation inhibition in MITF-low A375 cells – cell-based, cherry-pick samples, set 2, counter-screen for MITF modulator project, dose response (AID 540335). Particulars: Homo sapiens. The class given is functional.
The target in test [7] is Glucose-6-phosphate 1-dehydrogenase (Homo sapiens, UniProt P11413). Put plainly: inhibition of Homo sapiens G6PD, dose series – biochemical, fluorescence, selectivity assay for P. falciparum G6PD inhibitor project, dose response (AID 504792). Format: functional.
The target in test [8] is T1, DNA repair protein RAD52 homolog (Homo sapiens, UniProt P43351).
T1 sequence (P43351 whole entry): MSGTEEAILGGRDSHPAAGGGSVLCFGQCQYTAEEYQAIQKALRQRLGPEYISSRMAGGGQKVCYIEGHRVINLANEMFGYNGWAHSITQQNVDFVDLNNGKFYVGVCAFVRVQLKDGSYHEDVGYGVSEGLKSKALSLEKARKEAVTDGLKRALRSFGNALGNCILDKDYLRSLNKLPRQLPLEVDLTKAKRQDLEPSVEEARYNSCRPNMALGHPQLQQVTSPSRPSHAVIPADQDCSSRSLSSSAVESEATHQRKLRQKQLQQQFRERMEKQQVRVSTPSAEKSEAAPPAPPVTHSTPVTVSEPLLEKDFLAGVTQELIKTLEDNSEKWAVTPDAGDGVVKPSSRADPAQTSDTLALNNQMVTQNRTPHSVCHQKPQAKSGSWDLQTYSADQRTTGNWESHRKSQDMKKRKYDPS
The class given is functional, biochemical.

Test [9] concerns HEK293. Kind of test: cells. Particulars: Homo sapiens.
Test [10] concerns the target E3 ubiquitin-protein ligase UHRF1 (Homo sapiens, UniProt Q96T88). Put plainly: Counterscreen for inhibitors of 5-meCpG-binding domain protein 2 (MBD2): TRFRET-based biochemical high throughput dose response assay to identify inhibitors of binding of ubiquitin-like with PHD and ring finger domains 1 (UHRF1) to methylated oligonucleotide.
The subject of test [11] is HEK293. Put plainly: cells. The note with it: Homo sapiens. The source holds these as a separate data set.
Test [12] concerns the target DNA (cytosine-5)-methyltransferase 1 (Homo sapiens, UniProt P26358). Kind of test: inhibition of DNA methylation by DNMT1 – biochemical, fluorescent molecular beacon, confirmation (AID 602386). The class given is functional.
Test [13] is described as follows: Counterscreen for activators of the function of SWI/SNF related, matrix associated, actin dependent regulator of chromatin, subfamily a, member 2 (SMARCA2, BRM): Luminescence-based cell-based high throughput dose response assay to identify non-selective compounds using the VP16 reporter assay. The class given is functional.
Test [14] addresses SWI/SNF-related matrix-associated actin-dependent regulator of chromatin subfamily A member 2 (Homo sapiens, UniProt P51531). Put plainly: Luminescence-based cell-based high throughput dose response assay to identify activators of the function of SWI/SNF related, matrix associated, actin dependent regulator of chromatin, subfamily a, member 2 (SMARCA2, BRM). The class given is functional.

The test system of test [15] is BJ. Kind of test: BJ-TERT-LT-ST fibroblast viability loss – cell-based, RAS-independent, luminescence, dose response (AID 1935).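 Further: BJ fibroblasts immortalized with TERT plus LT and ST oncogenes.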 The class given is functional. Particulars: Homo sapiens.
Test [16] deals with Jurkat. Put plainly: blockers of NF-kB activation in T cells – Jurkat, luciferase reporter, luminescence, B- and T-cell, dose response (AID 489004).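 Further: NF-kB luciferase reporter Jurkat cells stimulated with PMA plus ionomycin.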 Particulars: Homo sapiens. The class given is functional, cell-based.
The nature of test [17]: DRD fibroblast viability loss – cell-based, non-viral oncogenic, luminescence, dose response (AID 1934). The class given is functional. The note with it: Homo sapiens.
Test [18] in a line: HEK-293T viability loss, compound-treated – cell-based, uHTS hits, cytotoxicity control for B/T-cell NF-kB inhibitor project, dose response (AID 489019).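 Further: IC50 reflects cytotoxicity as loss of cell viability.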 Format: functional.
In test [19] the test system is HEK293. Kind of test: HEK293T cell viability loss, resazurin readout – resazurin fluorescence, cytotoxicity control for NF-kB activator project, SAR follow-up (AID 493251). The note with it: Homo sapiens. The class given is functional, cell-based.
Test [20] has as its system BJ. Kind of test: cells. The class given is functional, cell-based. The note with it: Homo sapiens.
For test [21], the system named is BJ. Kind of test: BJ-TERT fibroblast viability loss – cell-based, RAS-independent, luminescence, dose response (AID 1933). Format: functional. The note with it: Homo sapiens.
Test [22] concerns HEK293. Kind of test: SAR Analysis of small molecule inhibitors of T-cell specific antigen receptor-induced NF-kB activation in a HEK-293T cell line using a luminescence assay - Set 2. [Related pubchem assays (depositor defined):AID435003, AID435012, AID489026]. Format: functional, cell-based. The note with it: Homo sapiens.
The subject of test [23] is Jurkat. Put plainly: SAR Analysis of small molecule inhibitors of T-cell specific antigen receptor-induced NF-kB activation in a Jurkat cell line using a luminescence assay - Set 2. [Related pubchem assays (depositor defined):AID435003, AID435012, AID465]. The class given is functional, cell-based. The note with it: Homo sapiens.
The subject of test [24] is Escherichia coli. Put plainly: microbe, parasite or virus in culture.
The test system of test [25] is Escherichia coli. Kind of test: microbe, parasite or virus in culture. The source holds these as a separate data set.

Activity calls are given as the source filed them.

SWI/SNF-related matrix-associated actin-dependent regulator of chromatin subfamily A member 2, sequence (P51531 whole entry): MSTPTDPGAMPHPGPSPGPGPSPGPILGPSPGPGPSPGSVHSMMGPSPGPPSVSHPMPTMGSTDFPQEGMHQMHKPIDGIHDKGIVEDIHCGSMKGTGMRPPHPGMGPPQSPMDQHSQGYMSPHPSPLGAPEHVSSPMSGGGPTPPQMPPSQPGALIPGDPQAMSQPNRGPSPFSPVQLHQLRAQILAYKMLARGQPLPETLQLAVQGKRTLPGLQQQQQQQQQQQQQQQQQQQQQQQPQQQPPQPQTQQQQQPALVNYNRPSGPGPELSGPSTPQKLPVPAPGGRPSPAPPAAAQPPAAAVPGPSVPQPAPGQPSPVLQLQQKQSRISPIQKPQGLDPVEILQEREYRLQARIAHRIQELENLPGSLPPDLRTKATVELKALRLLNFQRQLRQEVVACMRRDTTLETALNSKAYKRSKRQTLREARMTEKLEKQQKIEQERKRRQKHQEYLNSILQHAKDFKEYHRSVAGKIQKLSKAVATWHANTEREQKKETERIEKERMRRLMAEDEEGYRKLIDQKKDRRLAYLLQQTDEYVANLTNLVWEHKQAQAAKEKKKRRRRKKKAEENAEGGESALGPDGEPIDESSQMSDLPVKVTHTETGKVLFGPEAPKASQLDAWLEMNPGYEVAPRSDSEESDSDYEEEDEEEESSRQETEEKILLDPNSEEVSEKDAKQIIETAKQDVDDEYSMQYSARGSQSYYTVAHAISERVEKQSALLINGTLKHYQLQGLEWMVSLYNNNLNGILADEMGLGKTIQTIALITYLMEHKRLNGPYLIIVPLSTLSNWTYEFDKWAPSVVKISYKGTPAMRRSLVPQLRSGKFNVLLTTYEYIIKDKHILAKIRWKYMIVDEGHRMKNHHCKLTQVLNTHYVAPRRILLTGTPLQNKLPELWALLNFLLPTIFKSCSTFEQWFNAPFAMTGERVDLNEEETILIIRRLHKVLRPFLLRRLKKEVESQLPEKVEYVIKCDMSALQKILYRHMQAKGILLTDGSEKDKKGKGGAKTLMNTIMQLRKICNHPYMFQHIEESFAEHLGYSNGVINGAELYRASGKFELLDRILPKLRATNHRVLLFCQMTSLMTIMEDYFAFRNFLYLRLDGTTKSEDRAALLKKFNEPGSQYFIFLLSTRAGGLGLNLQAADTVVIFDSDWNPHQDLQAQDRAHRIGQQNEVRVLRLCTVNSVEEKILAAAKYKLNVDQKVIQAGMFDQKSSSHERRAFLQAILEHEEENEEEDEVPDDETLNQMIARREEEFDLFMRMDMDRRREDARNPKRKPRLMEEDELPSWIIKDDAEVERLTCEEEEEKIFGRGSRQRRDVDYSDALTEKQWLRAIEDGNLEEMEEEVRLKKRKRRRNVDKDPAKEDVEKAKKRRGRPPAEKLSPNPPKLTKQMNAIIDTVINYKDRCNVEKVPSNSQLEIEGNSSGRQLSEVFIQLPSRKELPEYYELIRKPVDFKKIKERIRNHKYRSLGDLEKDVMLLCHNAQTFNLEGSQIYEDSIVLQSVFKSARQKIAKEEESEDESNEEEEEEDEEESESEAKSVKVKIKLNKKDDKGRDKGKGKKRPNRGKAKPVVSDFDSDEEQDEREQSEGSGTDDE
DNA (cytosine-5)-methyltransferase 1, sequence (P26358 whole entry): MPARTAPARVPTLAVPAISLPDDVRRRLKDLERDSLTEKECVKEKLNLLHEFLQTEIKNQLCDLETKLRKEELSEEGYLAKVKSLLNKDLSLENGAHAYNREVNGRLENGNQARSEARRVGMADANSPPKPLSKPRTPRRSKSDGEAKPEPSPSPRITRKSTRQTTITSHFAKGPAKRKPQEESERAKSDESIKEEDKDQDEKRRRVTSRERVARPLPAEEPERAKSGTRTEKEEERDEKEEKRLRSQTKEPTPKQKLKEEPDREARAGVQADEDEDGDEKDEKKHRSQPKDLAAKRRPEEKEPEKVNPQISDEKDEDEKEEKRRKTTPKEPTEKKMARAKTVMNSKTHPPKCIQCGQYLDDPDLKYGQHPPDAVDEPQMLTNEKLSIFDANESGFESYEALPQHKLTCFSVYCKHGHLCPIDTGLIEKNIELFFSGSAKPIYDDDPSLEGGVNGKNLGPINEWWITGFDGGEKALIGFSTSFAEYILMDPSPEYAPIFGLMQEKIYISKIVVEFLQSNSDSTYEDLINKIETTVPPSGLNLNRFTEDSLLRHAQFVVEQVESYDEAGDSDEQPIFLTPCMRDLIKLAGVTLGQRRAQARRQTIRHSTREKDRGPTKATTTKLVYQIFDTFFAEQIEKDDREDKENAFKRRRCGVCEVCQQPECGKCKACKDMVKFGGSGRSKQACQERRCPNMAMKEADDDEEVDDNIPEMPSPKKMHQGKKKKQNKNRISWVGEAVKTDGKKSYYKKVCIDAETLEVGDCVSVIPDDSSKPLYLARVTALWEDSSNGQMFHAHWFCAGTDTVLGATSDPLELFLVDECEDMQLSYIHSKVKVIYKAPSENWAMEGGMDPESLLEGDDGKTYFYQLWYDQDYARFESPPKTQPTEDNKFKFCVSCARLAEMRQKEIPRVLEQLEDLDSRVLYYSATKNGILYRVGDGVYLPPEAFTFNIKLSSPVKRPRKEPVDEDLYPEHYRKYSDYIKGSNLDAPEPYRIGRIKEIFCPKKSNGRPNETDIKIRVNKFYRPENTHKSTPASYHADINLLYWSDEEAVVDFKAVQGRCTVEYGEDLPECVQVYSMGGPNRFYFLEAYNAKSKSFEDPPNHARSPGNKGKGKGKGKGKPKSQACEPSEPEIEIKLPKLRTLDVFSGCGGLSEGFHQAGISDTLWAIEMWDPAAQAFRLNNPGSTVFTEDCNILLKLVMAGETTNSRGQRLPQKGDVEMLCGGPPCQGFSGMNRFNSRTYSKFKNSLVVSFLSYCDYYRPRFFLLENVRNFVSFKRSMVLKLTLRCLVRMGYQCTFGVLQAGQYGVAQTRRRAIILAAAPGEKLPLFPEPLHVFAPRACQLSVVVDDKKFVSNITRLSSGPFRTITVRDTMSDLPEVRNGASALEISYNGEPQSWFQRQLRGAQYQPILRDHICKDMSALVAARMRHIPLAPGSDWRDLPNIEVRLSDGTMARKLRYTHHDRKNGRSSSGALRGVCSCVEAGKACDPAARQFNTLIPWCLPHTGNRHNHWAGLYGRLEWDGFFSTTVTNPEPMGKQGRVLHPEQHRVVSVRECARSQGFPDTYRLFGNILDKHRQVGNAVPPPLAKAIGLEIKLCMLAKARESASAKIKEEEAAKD
Glucose-6-phosphate 1-dehydrogenase, sequence (P11413 whole entry): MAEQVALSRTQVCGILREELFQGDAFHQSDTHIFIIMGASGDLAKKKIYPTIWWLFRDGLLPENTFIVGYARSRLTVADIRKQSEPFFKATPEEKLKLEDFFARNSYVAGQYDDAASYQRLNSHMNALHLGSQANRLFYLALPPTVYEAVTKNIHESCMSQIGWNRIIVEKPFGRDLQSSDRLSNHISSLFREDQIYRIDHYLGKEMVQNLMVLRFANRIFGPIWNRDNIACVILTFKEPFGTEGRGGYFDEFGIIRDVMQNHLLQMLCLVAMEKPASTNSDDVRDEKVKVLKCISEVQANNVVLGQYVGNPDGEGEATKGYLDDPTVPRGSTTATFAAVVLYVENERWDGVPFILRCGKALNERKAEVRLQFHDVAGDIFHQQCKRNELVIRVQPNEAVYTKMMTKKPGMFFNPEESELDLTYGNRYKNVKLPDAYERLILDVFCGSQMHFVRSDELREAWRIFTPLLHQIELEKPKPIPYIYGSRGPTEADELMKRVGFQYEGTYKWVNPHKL
E3 ubiquitin-protein ligase UHRF1, sequence (Q96T88 whole entry, the tested form may be a part): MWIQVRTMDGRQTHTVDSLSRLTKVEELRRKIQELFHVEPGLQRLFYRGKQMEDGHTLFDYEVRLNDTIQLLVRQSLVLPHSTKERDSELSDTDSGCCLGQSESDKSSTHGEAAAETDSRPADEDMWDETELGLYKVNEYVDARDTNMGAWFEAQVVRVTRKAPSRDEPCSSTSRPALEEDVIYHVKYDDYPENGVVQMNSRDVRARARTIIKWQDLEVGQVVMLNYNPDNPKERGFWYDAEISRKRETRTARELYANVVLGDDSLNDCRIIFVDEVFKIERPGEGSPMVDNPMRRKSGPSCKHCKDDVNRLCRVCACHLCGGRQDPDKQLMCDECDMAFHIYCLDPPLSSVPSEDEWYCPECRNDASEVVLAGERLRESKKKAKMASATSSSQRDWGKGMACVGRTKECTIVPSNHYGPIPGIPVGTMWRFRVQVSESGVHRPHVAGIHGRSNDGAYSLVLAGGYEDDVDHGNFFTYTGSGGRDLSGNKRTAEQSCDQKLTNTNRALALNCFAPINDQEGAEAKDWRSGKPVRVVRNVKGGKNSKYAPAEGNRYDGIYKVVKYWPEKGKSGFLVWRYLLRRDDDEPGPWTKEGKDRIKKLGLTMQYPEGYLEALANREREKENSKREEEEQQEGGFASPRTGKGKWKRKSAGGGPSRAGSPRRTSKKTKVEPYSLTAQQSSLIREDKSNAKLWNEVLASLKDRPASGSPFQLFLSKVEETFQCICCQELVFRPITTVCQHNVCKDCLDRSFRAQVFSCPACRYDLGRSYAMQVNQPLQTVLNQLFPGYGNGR

In the case of `COC(=O)Cn1nc(-c2ccccc2)c2cc(Cl)ccc21`, in [1], the half-maximal activity concentration (AC50) is 9.53 µM (active).
On to `CCCCC1C(=O)N(c2ccccc2)N(c2ccc(O)cc2)C1=O` (stereo not given) [OXYPHENBUTAZONE ANHYDROUS], for which the IC50 in [2] is > 10 µM (inactive); in test [3], > 10 µM (inactive); in [7] it was > 80 µM (inactive). Further, the AC50 was > 35 µM (active) in test [4], 9.85 µM (active) in test [5] and > 35 µM (active) in test [6].
Turning to `c1ccc2c(c1)C1=NCCN1c1ccccc1-2`, in test [8], the AC50 was 5.19 µM (active). Also, the EC50 was > 59.8 µM (inactive) in test [9], > 59.8 µM (inactive) in test [11], > 91.3 µM (inactive) in test [13] and > 3.38 µM (active) in test [14]. Further, the IC50 in test [10] is 37 µM (inactive); in [12], 9.24 µM (active).
As for `COc1cc2nc(NC(=O)c3ccccc3)sc(=O)c2cc1OC`, the concentration giving a half-maximal response (EC50) in [15] is > 150 µM (inconclusive); in [17], 79 µM (active); in [20] it was > 150 µM (not active); in test [21], 20.1 µM (active). The IC50 is 0.76 µM (active) in [16]; > 80 µM (inactive) in [18]; > 80 µM (inactive) in test [19]; 65.6 µM (inactive) in test [22]; 0.56 µM (active) in test [23].
As to `O=S(=O)(c1ccccc1)c1cnc(-c2cccnc2)nc1-c1ccc(Cl)cc1Cl`, the AC50 in [24] was 150 µM (active); in [25], 224 µM (active).

For the origin of these results see ChEMBL document CHEMBL1201862, “PubChem BioAssay data set” (2004).
